Values after ≈ are worked out from the molar mass of the structure shown.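 Five compound concentrations were applied to cells in 96-well plates for 48 hours; endpoints were derived by simple linear interpolation of the resulting dose-response curve. GI50 = concentration required for 50% inhibition of growth. TGI: total growth inhibition.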
What was measured:
Assay in all cases: NCI-60 cell line screen, 48 h
[1] = system: OVCAR-4 ovarian
[2] = system: ACHN renal
[3] = system: NCI-H460 lung
[4] = system: MALME-3M melanoma
[5] = system: K-562 leukemia
[6] = system: CCRF-CEM leukemia
[7] = system: RXF 393 renal
[8] = system: SR leukemia

| SMILES | TGI [1] [µM] | TGI [2] [µM] | TGI [3] [µM] | TGI [4] [µM] | TGI [5] [µM] | TGI [6] [µM] | TGI [7] [µM] | TGI [8] | GI50 [1] | GI50 [2] | GI50 [8] | GI50 [3] | GI50 [4] [µg/mL] | GI50 [5] | GI50 [6] | GI50 [7] [µM] |
| --- | --- | --- | --- | --- | --- | --- | --- | --- | --- | --- | --- | --- | --- | --- | --- | --- |
| C(=C\c1cc[n+](CCc2ccccc2)cc1)/c1ccccc1 | 50.9 | > 100 | > 100 | 28.6 | 63.6 | 42.5 | > 100 |  |  |  |  |  |  |  |  |  |
| N/C(=N\N=C\c1nc2ccccc2o1)c1cnccn1 | > 100 | > 100 | > 100 | 4.38 | > 100 | > 100 | > 100 | > 100 µM |  |  |  |  |  |  |  |  |
| COC(=O)[C@@H]1Cc2ccc(OC)c(c2)OCCC(=O)N1 | > 100 | > 100 |  | > 100 | > 100 | > 100 | > 100 | > 100 µM |  |  |  |  |  |  |  |  |
| CCOC(=O)c1nc2ccc(C(F)(F)F)cc2nc1Oc1ccc(OC)cc1 | > 100 | > 100 | > 100 | > 100 | > 100 | > 100 | > 100 |  |  |  |  |  |  |  |  |  |
| Cc1csc(=Nc2ccccc2)n1CCC(O)(P(=O)(O)O)P(=O)(O)O |  | > 100 | > 100 | > 100 |  |  | > 100 |  |  |  |  |  |  |  |  |  |
| COc1ccc(OC)c(/C=C2/C(=O)N=C(NC(C)=O)N2C)c1 | > 100 | > 100 | > 100 |  |  | > 100 | > 100 |  |  |  |  |  |  |  |  |  |
| CCN(C(=O)N[C@@H](CC(C)C)C(=O)NCC(=O)OC)c1ccccc1 | > 100 | > 100 | > 100 | 51.1 | > 100 | > 100 | > 100 | > 100 µM |  |  |  |  |  |  |  |  |
| COC(=O)C1(CCCCl)CCCN1C(=O)OC(C)(C)C (stereo not given) | > 100 | > 100 | > 100 |  | > 100 | > 100 | > 100 | > 100 µM |  |  |  |  |  |  |  |  |
| CC(=O)Nc1nc2c(=O)c3ccccc3sc2s1 |  | > 100 | > 100 |  | > 100 | > 100 | > 100 |  |  |  |  |  |  |  |  |  |
| CCCCCCC1OC23OC1CCC2C(O)CCC3O (stereo not given) | > 100 | > 100 | > 100 | > 100 | > 100 |  | > 100 | > 100 µM |  |  |  |  |  |  |  |  |
| CC(C)C(=O)Cc1ccc2ccccc2n1 | > 100 | > 100 | > 100 | > 100 |  | > 100 | > 100 |  |  |  |  |  |  |  |  |  |
| N#CC1=C(S)N(C2OC(CO)C(O)C(O)C2O)C(c2ccccc2)=CC1c1ccco1 (stereo not given) | > 100 |  | > 100 | > 100 | > 100 | > 100 | > 100 | > 100 µM |  |  |  |  |  |  |  |  |
| C=CCN(c1cc(O)c2c(c(C)cn2S(=O)(=O)c2ccccc2)c1[N+](=O)[O-])S(C)(=O)=O | > 100 | > 100 | > 100 | > 100 | > 100 | > 100 | > 100 |  |  |  |  |  |  |  |  |  |
| O=C(c1c(F)c(F)c(F)c(F)c1F)n1c(=S)n(C(=O)c2c(F)c(F)c(F)c(F)c2F)c2ccccc21 | > 100 | > 100 | > 100 |  | 51.5 | 49.9 |  | > 100 µM |  |  |  |  |  |  |  |  |
| O=C1/C(=C/c2ccc(Br)s2)NC(=S)N1CN1CCCCC1 | > 100 | > 100 | > 100 | > 100 | 59.8 |  | 60.7 | 47.1 µM |  |  |  |  |  |  |  |  |
| COC(=O)c1c(C)cccc1C1CN=NC12Cc1cc(C)c(C)cc1C2=O (stereo not given) | > 100 | > 100 | > 100 | > 100 | > 100 | > 100 | > 100 |  |  |  |  |  |  |  |  |  |
| CC(C)(C)OC(=O)CC(NC(=O)OCc1ccccc1)NC(=O)OC(C)(C)C (stereo not given) |  |  |  |  |  |  |  | 67.7 µg/mL | 78.9 µg/mL | 51.5 µg/mL | 27.8 µg/mL | 39.8 µg/mL | 46 (≈ 117 µM) | 38.2 µg/mL | 35.4 µg/mL |  |
| CO/C(N)=C(\C#N)N=Cc1ccsc1 | > 100 | > 100 | > 100 | > 100 | > 100 | 81 | > 100 |  |  |  |  |  |  |  |  |  |
| CS(=O)(=O)CCC1CCC(=O)O1 (stereo not given) |  | 90.4 | > 100 | > 100 | > 100 |  | > 100 | > 100 µM |  |  |  |  |  |  |  |  |
| O=[N+]([O-])c1ccc2c3c1[C@@H]1O[C@@H]1c1cccc(c1-3)[C@@H]1O[C@H]21 | 9.48 |  |  | 12.7 | > 100 | 8.17 | 16.8 | > 100 µM |  |  |  |  |  |  |  |  |
| COC(=O)C(=O)C(C(=O)C(=O)Nc1cccc(OC)c1)c1nc2ccc(Cl)cc2[nH]c1=O (stereo not given) | > 100 | > 100 | > 100 | > 100 | > 100 | > 100 |  |  |  |  |  |  |  |  |  |  |
| Fc1ccc2c(c1)SC1=Nc3sc4cc(F)ccc4[n+]3CN12 | 72.4 | 62.2 | > 100 | 47.1 | 43.9 |  | 86.8 |  |  |  |  |  |  |  |  |  |
| c1ccc(C(NC2=NCCO2)C2CC2)cc1 (stereo not given) | > 100 | > 100 | > 100 | > 100 |  |  | > 100 | > 100 µM |  |  |  |  |  |  |  |  |
| C#CCN(C(=O)C(F)(F)F)C(/C=C\C(=O)OC)(C(=O)OCC)C(=O)OCC | > 100 | > 100 | > 100 | > 100 | > 100 | > 100 | > 100 |  |  |  |  |  |  |  |  |  |
| S=c1[nH]nc(Cn2c3ccc(Br)cc3c3nc4ccccc4nc32)o1 |  | > 100 | > 100 | > 100 | > 100 | > 100 | > 60 | > 100 µM |  |  |  |  |  |  |  |  |
| Cc1nn(C(=O)Cc2ccccc2)c2c1C(c1ccc(/C=C/c3ccccc3)cc1)SC(N)=N2 (stereo not given) |  | > 100 | > 100 | > 100 | > 100 | > 100 |  |  |  |  |  |  |  |  |  |  |
| O=C(Nc1ccc(Cl)cc1Cl)C1C(=O)OC2(CCCCC2)OC1=O | > 100 | 33.9 | 27.4 |  | 43.1 | 33.2 | 22 | 64.1 µM |  |  |  |  |  |  |  |  |
| O=[N+]([O-])c1ccc(N/N=C\c2cc(Br)ccc2O)nc1 | 4.02 | 2.56 | 2.72 |  | > 100 | > 100 | 9.95 | > 100 µM | 0.543 µM | 0.461 µM | 0.463 µM | 0.636 µM |  | 0.612 µM | 0.314 µM | 2.17 |

— PubChem BioAssay (NCI)
